Assay results published in patent publication US8846719B2, “Isoxazolo-pyridine derivatives” (Roche Palo Alto LLC, priority 2007, dated 2014).

Biological target: human GABA A receptor α5β3γ2 (Homo sapiens (Human), UniProt P18507+P31644)
Assay: [3H]flumazenil competition binding assay, human GABA A α5β3γ2 receptors expressed in HEK293 cells
Details: human receptor; displacement of [3H]flumazenil (0.5 nM); means of two determinations; read-out: hKi GABAAa5
Procedure: The affinity of compounds at GABA A receptor subtypes was measured by competition for [3H]flumazenil (85 Ci/mmol; Roche) binding to HEK293 cells expressing rat (stably transfected) or human (transiently transfected) receptors of composition α1β3γ2, α2β3γ2, α3β3γ2 and α5β3γ2.
Cell pellets were suspended in Krebs-tris buffer (4.8 mM KCl, 1.2 mM CaCl2, 1.2 mM MgCl2, 120 mM NaCl, 15 mM Tris; pH 7.5; binding assay buffer), homogenized by polytron for ca. 20 sec on ice and centrifuged for 60 min at 4° C. (50000 g; Sorvall, rotor: SM24=20000 rpm). The cell pellets were resuspended in Krebs-tris buffer and homogenized by polytron for ca. 15 sec on ice. Protein was measured (Bradford method, Bio-Rad) and aliquots of 1 mL were prepared and stored at −80° C.
Assays were incubated to equilibrium for 1 hour at 4° C. and harvested onto GF/C uni-filters (Packard) by filtration using a Packard harvester and washing with ice-cold wash buffer (50 mM Tris; pH 7.5). After drying, filter-retained radioactivity was detected by liquid scintillation counting. Ki values were calculated using Excel-Fit (Microsoft) and are the means of two determinations.

Structure (SMILES) | Ki [nM]
Cc1nc(OCc2c(-c3ccccc3)noc2C)ccc1C(=O)NC1CCOCC1 [Example 60, 2-Methyl-6-(5-methyl-3-phenyl-isoxazol-4-ylmethoxy)-N-(tetrahydro-pyran-4-yl)-nicotinamide] | 38.7
Cc1onc(-c2ccccc2)c1COc1cc(C(F)(F)F)c(C(=O)O)cn1 [Example 61, 6-(5-Methyl-3-phenyl-isoxazol-4-ylmethoxy)-4-trifluoromethyl-nicotinic acid] | 18.4
Cc1onc(-c2ccccc2)c1COc1cc(C(F)(F)F)c(C(=O)NC(C)C)cn1 [Example 62, N-Isopropyl-6-(5-methyl-3-phenyl-isoxazol-4-ylmethoxy)-4-trifluoromethyl-nicotinamide] | 14.6
Cc1onc(-c2ccccc2)c1COc1cc(C(F)(F)F)c(C(=O)NC2CCOCC2)cn1 [Example 63, 6-(5-Methyl-3-phenyl-isoxazol-4-ylmethoxy)-N-(tetrahydro-pyran-4-yl)-4-trifluoromethyl-nicotinamide] | 10.7
COC(=O)c1cnc(OCc2c(-c3ccccc3)noc2C)c(Br)c1 [Example 64, 5-Bromo-6-(5-methyl-3-phenyl-isoxazol-4-ylmethoxy)-nicotinic acid methyl ester] | 34.4
Cc1onc(-c2ccccc2)c1COc1ncc(C(=O)NC2CCOCC2)cc1Br [Example 65, 5-Bromo-6-(5-methyl-3-phenyl-isoxazol-4-ylmethoxy)-N-(tetrahydro-pyran-4-yl)-nicotinamide] | 24.4
Cc1cc(C(=O)NC2CCOCC2)cnc1OCc1c(-c2ccccc2)noc1C [Example 66, 5-Methyl-6-(5-methyl-3-phenyl-isoxazol-4-ylmethoxy)-N-(tetrahydro-pyran-4-yl)-nicotinamide] | 1.4
Cc1nc(OCc2c(-c3ccccc3)noc2C)c(Br)cc1C(=O)NC1CCOCC1 [Example 67, 5-Bromo-2-methyl-6-(5-methyl-3-phenyl-isoxazol-4-ylmethoxy)-N-(tetrahydro-pyran-4-yl)-nicotinamide] | 47.3
Cc1onc(-c2ccccc2)c1COc1ncc(C(=O)NC(C)C)cc1Br [Example 68, 5-Bromo-N-isopropyl-6-(5-methyl-3-phenyl-isoxazol-4-ylmethoxy)-nicotinamide] | 18.6
Cc1cc(C(=O)NC(C)C)cnc1OCc1c(-c2ccccc2)noc1C [Example 69, N-Isopropyl-5-methyl-6-(5-methyl-3-phenyl-isoxazol-4-ylmethoxy)-nicotinamide] | 2.95
Cc1onc(-c2ccccc2)c1COc1ccc(C(=O)N(C)C(C)C)cn1 [Example 70, N-Isopropyl-N-methyl-6-(5-methyl-3-phenyl-isoxazol-4-ylmethoxy)-nicotinamide] | 53.1
Cc1onc(-c2ccccc2)c1COc1ccc(C(=O)N2CCOCC2(C)C)cn1 [Example 71, (3,3-Dimethyl-morpholin-4-yl)-[6-(5-methyl-3-phenyl-isoxazol-4-ylmethoxy)-pyridin-3-yl]-methanone] | 80.8
CCOC(=O)c1ccc(OCc2c(-c3ccccc3)noc2C)nc1C [Example 72, 2-Methyl-6-(5-methyl-3-phenyl-isoxazol-4-ylmethoxy)-nicotinic acid ethyl ester] | 19.3
Cc1onc(-c2ccccc2)c1COc1cccc(C#N)n1 [Example 73, 6-(5-Methyl-3-phenyl-isoxazol-4-ylmethoxy)-pyridine-2-carbonitrile] | 20.9
Cc1onc(-c2ccccc2)c1COc1ccc(C2(O)COC2)cn1 [Example 74, 3-[6-(5-Methyl-3-phenyl-isoxazol-4-ylmethoxy)-pyridin-3-yl]-oxetan-3-ol] | 28.1
Cc1onc(-c2ccccc2)c1COc1ccc(C(=O)NCC2CCCOC2)cn1 (centres unmarked) [Example 76, 6-(5-Methyl-3-phenyl-isoxazol-4-ylmethoxy)-N-(tetrahydro-pyran-3-ylmethyl)-nicotinamide] | 11.7
Cc1onc(-c2ccccc2)c1COc1ccc(C(=O)NCC2CCOC2)cn1 (centres unmarked) [Example 77, 6-(5-Methyl-3-phenyl-isoxazol-4-ylmethoxy)-N-(tetrahydro-furan-3-ylmethyl)-nicotinamide] | 4.6
Cc1onc(-c2ccccc2)c1COc1ccc(C(=O)N2CCCn3nccc32)cn1 [Example 78, (6,7-Dihydro-5H-pyrazolo[1,5-a]pyrimidin-4-yl)-[6-(5-methyl-3-phenyl-isoxazol-4-ylmethoxy)-pyridin-3-yl]-methanone] | 40.7
Cc1onc(-c2ccccc2)c1COc1ccc(C(=O)NC2COCc3ccccc32)cn1 (centres unmarked) [Example 79, N-Isochroman-4-yl-6-(5-methyl-3-phenyl-isoxazol-4-ylmethoxy)-nicotinamide] | 68.1

Structure (SMILES) | Ki [nM]
Cc1onc(-c2ccccc2)c1COc1ccc(C(=O)NCc2cc(C(C)C)no2)cn1 [Example 80, N-(3-Isopropyl-isoxazol-5-ylmethyl)-6-(5-methyl-3-phenyl-isoxazol-4-ylmethoxy)-nicotinamide] | 44.4
Cc1onc(-c2ccccc2)c1COc1ccc(C(=O)N2CCC23COC3)cn1 [Example 82, [6-(5-Methyl-3-phenyl-isoxazol-4-ylmethoxy)-pyridin-3-yl]-(6-oxa-1-aza-spiro[3.3]hept-1-yl)-methanone] | 16.8
Cc1onc(-c2ccccc2)c1COc1ccc(C(=O)OC(C)C)cn1 [Example 83, 6-(5-Methyl-3-phenyl-isoxazol-4-ylmethoxy)-nicotinic acid isopropyl ester] | 4.7
Cc1onc(-c2ccccc2F)c1COc1ccc(C(=O)NCC(F)(F)F)cn1 [Example 84, 6-[3-(2-Fluoro-phenyl)-5-methyl-isoxazol-4-ylmethoxy]-N-(2,2,2-trifluoro-ethyl)-nicotinamide] | 4.5
Cc1onc(-c2ccccc2F)c1COc1ccc(C(=O)NCC(F)(F)C(F)(F)F)cn1 [Example 85, 6-[3-(2-Fluoro-phenyl)-5-methyl-isoxazol-4-ylmethoxy]-N-(2,2,3,3,3-pentafluoro-propyl)-nicotinamide] | 9.8
Cc1onc(-c2ccccc2F)c1COc1ccc(C(=O)NC(C)C)cn1 [Example 86, 6-[3-(2-Fluoro-phenyl)-5-methyl-isoxazol-4-ylmethoxy]-N-isopropyl-nicotinamide] | 3.6
Cc1onc(-c2ccccc2F)c1COc1ccc(C(=O)NC2CCOCC2)cn1 [Example 87, 6-[3-(2-Fluoro-phenyl)-5-methyl-isoxazol-4-ylmethoxy]-N-(tetrahydro-pyran-4-yl)-nicotinamide] | 4.6
COC(=O)c1ccc(OCc2c(-c3cccc(F)c3)noc2C)nc1 [Example 88, 6-[3-(3-Fluoro-phenyl)-5-methyl-isoxazol-4-ylmethoxy]-nicotinic acid methyl ester] | 17.4
Cc1onc(-c2cccc(F)c2)c1COc1ccc(C(=O)NCC(F)(F)F)cn1 [Example 89, 6-[3-(3-Fluoro-phenyl)-5-methyl-isoxazol-4-ylmethoxy]-N-(2,2,2-trifluoro-ethyl)-nicotinamide] | 3
Cc1onc(-c2cccc(F)c2)c1COc1ccc(C(=O)NCC2CC2)cn1 [Example 90, N-Cyclopropylmethyl-6-[3-(3-fluoro-phenyl)-5-methyl-isoxazol-4-ylmethoxy]-nicotinamide] | 3.2
Cc1onc(-c2cccc(F)c2)c1COc1ccc(C(=O)NC(C)C)cn1 [Example 91, 6-[3-(3-Fluoro-phenyl)-5-methyl-isoxazol-4-ylmethoxy]-N-isopropyl-nicotinamide] | 2.3
Cc1onc(-c2cccc(F)c2)c1COc1ccc(C(=O)NC2CC2)cn1 [Example 92, N-Cyclopropyl-6-[3-(3-fluoro-phenyl)-5-methyl-isoxazol-4-ylmethoxy]-nicotinamide] | 41.3
Cc1onc(-c2cccc(F)c2)c1COc1ccc(C(=O)NC2CCOCC2)cn1 [Example 93, 6-[3-(3-Fluoro-phenyl)-5-methyl-isoxazol-4-ylmethoxy]-N-(tetrahydro-pyran-4-yl)-nicotinamide] | 1.7
Cc1onc(-c2cccc(F)c2)c1COc1ccc(C(=O)N2CCOCC2)cn1 [Example 94, {6-[3-(3-Fluoro-phenyl)-5-methyl-isoxazol-4-ylmethoxy]-pyridin-3-yl}-morpholin-4-yl-methanone] | 48.1
Cc1onc(-c2cccc(F)c2)c1COc1ccc(C(=O)N2CCSCC2)cn1 [Example 95, {6-[3-(3-Fluoro-phenyl)-5-methyl-isoxazol-4-ylmethoxy]-pyridin-3-yl}-thiomorpholin-4-yl-methanone] | 45.6
Cc1onc(-c2cccc(F)c2)c1COc1ccc(C(=O)N2CCS(=O)(=O)CC2)cn1 [Example 96, (1,1-Dioxo-1λ6-thiomorpholin-4-yl)-{6-[3-(3-fluoro-phenyl)-5-methyl-isoxazol-4-ylmethoxy]-pyridin-3-yl}-methanone] | 13.4
COC(=O)c1ccc(OCc2c(-c3cccc(Cl)c3)noc2C)nc1 [Example 97, 6-[3-(3-Chloro-phenyl)-5-methyl-isoxazol-4-ylmethoxy]-nicotinic acid methyl ester] | 27.4
Cc1onc(-c2cccc(Cl)c2)c1COc1ccc(C(=O)NCC(F)(F)F)cn1 [Example 98, 6-[3-(3-Chloro-phenyl)-5-methyl-isoxazol-4-ylmethoxy]-N-(2,2,2-trifluoro-ethyl)-nicotinamide] | 7.8
Cc1onc(-c2cccc(Cl)c2)c1COc1ccc(C(=O)NCC2CC2)cn1 [Example 99, 6-[3-(3-Chloro-phenyl)-5-methyl-isoxazol-4-ylmethoxy]-N-cyclopropylmethyl-nicotinamide] | 8.1
